Series [1] has as its system TTR. Briefly: TTR editing in HEK293_Cas9 cells transfected with dgRNAs (Table 4). As to conditions: HEK293_Cas9 cells (constitutively express Spy Cas9) transfected with dgRNAs. Type of series: cell-based, human. The method in brief:
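Spy Cas9-expressing HEK293 cells were transfected by lipofection with crRNA (25 nM) plus trRNA (25 nM) and harvested at 24, 48 or 72 h. The target site was PCR-amplified and sequenced on MiSeq. Percent editing is reads with indels or substitutions over total reads.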

The subject of series [2] is TTR. Briefly: TTR editing in HepG2 cells transfected with Spy Cas9 mRNA and dgRNAs (Table 6). Type of series: cell-based, human. Particulars: HepG2 cells co-transfected with Spy Cas9 mRNA (SEQ ID NO:2) and dgRNAs. In outline:
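HepG2 cells were transfected sequentially by lipofection with Spy Cas9 mRNA (100 ng), then crRNA plus tracer RNA (25 nM each), and harvested at 24, 48 or 72 h. Editing was measured by amplicon NGS at the TTR target site as the fraction of reads with indels or substitutions.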

The subject of series [3] is TTR. Briefly: TTR editing in primary human hepatocytes electroporated with Spy Cas9 protein loaded with dgRNAs (Table 7). As to conditions: dgRNA electroporated with Spy Cas9 protein (RNP). It counts as cell-based. In outline:
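Primary human or cynomolgus hepatocytes electroporated (Lonza P3 buffer, program EX-147) with Spy Cas9 RNP carrying pre-annealed crRNA/trRNA dual guides. Genomic DNA harvested at 24, 48 or 72 h; target amplicons sequenced by Illumina MiSeq. Percent editing = reads with indels or substitutions over total reads.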

Series [4] concerns TTR. Briefly: TTR editing in primary human hepatocytes transfected with Spy Cas9 protein (RNP) loaded with dgRNAs (Table 8). As to conditions: dgRNA transfected with Spy Cas9 protein (RNP). It counts as cell-based. In outline:
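Primary human hepatocytes were lipofected (RNAiMAX) with RNP of Spy Cas9 (10 nM) plus pre-annealed crRNA (10 nM) and trRNA (10 nM) and harvested 24, 48 or 72 h later. Target-site amplicons were sequenced on Illumina MiSeq and aligned to hg38; percent editing = reads with indels or substitutions over total reads.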

For “AGUCCCUCAUUCCUUGGGAU (tested as dual guide RNA, chemistry not given here) [CR003392]”, the “Avg % Deletion” value is reported as 20.82% in series [1], 0.33% in series [2], 0.17% in series [3] and 0.14% in series [4]. The “Avg % Edit” value in series [1] came to 21.67%; in series [2], 14.64%; in series [3], 4.13%; in series [4] it was 10.07%. The “Avg % Insert” value in series [1] was determined as 0.85%; in series [2], 14.32%; in series [3], 4.00%; in series [4], 9.93%.

Regarding “AGUGAGUCUGGAGAGCUGCA (tested as dual guide RNA, chemistry not given here) [CR003359]”, the “Avg % Deletion” value is on record as 19.40% in series [1], 15.65% in series [2], 7.50% in series [3] and 8.51% in series [4]. Also, the “Avg % Edit” value in series [1] was 37.75%; in series [2], 64.44%; in series [3], 63.77%; in series [4], 59.47%. Further, the “Avg % Insert” value in series [1] is given as 18.35%; in series [2], 48.79%; in series [3], 56.33%; in series [4], 50.96%.

With “AUACCAGUCCAGCAAGGCAG (tested as dual guide RNA, chemistry not given here) [CR003338]”, the “Avg % Deletion” value in series [1] came to 47.66%; in series [2], 2.60%; in series [3], 2.13%; in series [4], 2.22%. Further, the “Avg % Edit” value amounted to 52.42% in series [1], 68.00% in series [2], 83.03% in series [3] and 61.34% in series [4]. Moreover, the “Avg % Insert” value in series [1] came to 4.76%; in series [2], 65.40%; in series [3], 80.87%; in series [4], 59.13%.

Turning to “AUAGGAGUAGGGGCUCAGCA (tested as dual guide RNA, chemistry not given here) [CR003383]”, the “Avg % Deletion” value was 15.35% in series [1], 0.16% in series [2], 5.27% in series [3] and 0.24% in series [4]. Also, the “Avg % Edit” value in series [1] is recorded as 40.47%; in series [2], 6.35%; in series [3] it was 8.57%; in series [4] it was 4.76%. Also, the “Avg % Insert” value in series [1] was found to be 25.12%; in series [2], 6.19%; in series [3], 3.37%; in series [4] it was 4.52%.

Turning to “AUGCAGCUCUCCAGACUCAC (tested as dual guide RNA, chemistry not given here) [CR003358]”, the “Avg % Deletion” value in series [1] was 4.14%; in series [2], 7.27%; in series [3], 0.80%; in series [4], 5.67%. Further, the “Avg % Edit” value in series [1] is given as 5.44%; in series [2], 35.93%; in series [3] it was 5.70%; in series [4], 31.62%. Also, the “Avg % Insert” value in series [1] was 1.29%; in series [2], 28.66%; in series [3], 4.93%; in series [4] it was 25.95%.

Consider “AUUGGUGACGACAGCCGUGG (tested as dual guide RNA, chemistry not given here) [CR003389]”, for which the “Avg % Deletion” value was 23.87% in series [1], 4.57% in series [2], 0.50% in series [3] and 0.68% in series [4]. Besides, the “Avg % Edit” value is reported as 34.18% in series [1], 31.84% in series [2], 27.67% in series [3] and 19.87% in series [4]. For the same sequence, the “Avg % Insert” value in series [1] is listed as 10.30%; in series [2], 27.27%; in series [3], 27.20%; in series [4] it was 19.19%.

Take “CAGAGGACACUUGGAUUCAC (tested as dual guide RNA, chemistry not given here) [CR003343]”: the “Avg % Deletion” value in series [1] came out at 19.53%; in series [2], 5.36%; in series [3], 1.50%; in series [4], 1.63%. Moreover, the “Avg % Edit” value in series [1] came to 24.36%; in series [2], 45.41%; in series [3], 77.10%; in series [4] it was 43.25%. The “Avg % Insert” value in series [1] stood at 4.82%; in series [2], 40.05%; in series [3], 75.63%; in series [4], 41.61%.

With “CAUUGAUGGCAGGACUGCCU (tested as dual guide RNA, chemistry not given here) [CR003347]”, the “Avg % Deletion” value is reported as 20.50% in series [1], 1.49% in series [2], 0.43% in series [3] and 0.24% in series [4]. Further, the “Avg % Edit” value came to 21.45% in series [1], 22.57% in series [2], 82.30% in series [3] and 66.35% in series [4]. In addition, the “Avg % Insert” value in series [1] is 0.95%; in series [2] it was 21.08%; in series [3], 81.97%; in series [4] it was 66.11%.

For “CCAGUCCAGCAAGGCAGAGG (tested as dual guide RNA, chemistry not given here) [CR003337]”, the “Avg % Deletion” value is on record as 37.48% in series [1], 2.65% in series [2], 1.30% in series [3] and 1.88% in series [4]. Moreover, the “Avg % Edit” value amounted to 42.72% in series [1], 61.93% in series [2], 54.27% in series [3] and 49.43% in series [4]. Besides, the “Avg % Insert” value worked out at 5.24% in series [1], 59.28% in series [2], 53.23% in series [3] and 47.54% in series [4].

Take “CCCAGAGGCAAAUGGCUCCC (tested as dual guide RNA, chemistry not given here) [CR003355]”: the “Avg % Deletion” value in series [1] was 23.61%; in series [2], 3.44%; in series [3], 1.97%; in series [4], 1.42%. The “Avg % Edit” value came out at 30.60% in series [1], 15.80% in series [2], 12.53% in series [3] and 19.11% in series [4]. Besides, the “Avg % Insert” value in series [1] came out at 6.99%; in series [2], 12.36%; in series [3] it was 10.60%; in series [4] it was 17.69%.

Consider “CCCCUACUCCUAUUCCACCA (tested as dual guide RNA, chemistry not given here) [CR003385]”, for which the “Avg % Deletion” value in series [1] was determined as 18.82%; in series [2] it was 7.62%; in series [3], 2.53%; in series [4], 3.00%. The “Avg % Edit” value turned out to be 26.19% in series [1], 53.94% in series [2], 40.87% in series [3] and 41.15% in series [4]. Also, the “Avg % Insert” value in series [1] was 7.36%; in series [2], 46.32%; in series [3], 38.43%; in series [4] it was 38.15%.

As to “CCGUGGUGGAAUAGGAGUAG (tested as dual guide RNA, chemistry not given here) [CR003386]”, the “Avg % Deletion” value stood at 30.18% in series [1], 0.56% in series [2], 0.47% in series [3] and 0.25% in series [4]. For the same sequence, the “Avg % Edit” value is reported as 33.12% in series [1], 2.71% in series [2], 4.90% in series [3] and 3.22% in series [4]. For the same sequence, the “Avg % Insert” value in series [1] is recorded as 2.94%; in series [2] it was 2.15%; in series [3], 4.47%; in series [4], 2.97%.

With “CCUCCUCUGCCUUGCUGGAC (tested as dual guide RNA, chemistry not given here) [CR003336]”, the “Avg % Deletion” value in series [1] is listed as 25.78%; in series [2] it was 0.83%; in series [3] it was 0.70%; in series [4] it was 0.58%. Also, the “Avg % Edit” value stood at 29.09% in series [1], 31.31% in series [2], 39.17% in series [3] and 30.70% in series [4]. Further, the “Avg % Insert” value is reported as 3.31% in series [1], 30.48% in series [2], 38.43% in series [3] and 30.11% in series [4].

Values taken from patent publication US11795460B2, “Compositions and methods for TTR gene editing and treating ATTR amyloidosis” (Intellia Therapeutics, Inc., priority 2017, dated 2023).
